Test results published in ChEMBL document CHEMBL5291721, “A preclinical secondary pharmacology resource illuminates target-adverse drug reaction associations of marketed drugs” (Nat Commun, 2023).

What was measured:
[1] = target: Gamma-aminobutyric acid receptor subunit alpha-1 (Rattus norvegicus, UniProt P62813)
[2] = target: Beta-3 adrenergic receptor (Homo sapiens, UniProt P13945)
[3] = target: T1, Corticotropin-releasing factor receptor 1 (Homo sapiens, UniProt P34998)
T1 sequence (P34998 whole entry): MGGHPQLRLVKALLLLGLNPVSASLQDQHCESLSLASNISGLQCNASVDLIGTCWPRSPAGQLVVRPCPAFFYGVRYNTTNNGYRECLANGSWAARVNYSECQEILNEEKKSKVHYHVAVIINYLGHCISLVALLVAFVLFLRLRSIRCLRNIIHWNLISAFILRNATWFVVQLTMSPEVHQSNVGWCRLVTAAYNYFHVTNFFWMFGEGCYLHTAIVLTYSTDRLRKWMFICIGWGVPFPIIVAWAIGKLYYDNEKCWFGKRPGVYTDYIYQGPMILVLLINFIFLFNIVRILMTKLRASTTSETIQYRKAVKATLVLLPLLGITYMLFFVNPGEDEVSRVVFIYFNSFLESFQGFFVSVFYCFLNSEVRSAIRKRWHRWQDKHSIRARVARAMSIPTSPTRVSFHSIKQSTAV

[4] = target: 5-hydroxytryptamine receptor 7 (Homo sapiens, UniProt P34969)
[5] = target: Neurotensin receptor type 1 (Homo sapiens, UniProt P30989)
Progesterone receptor = target: T2, Progesterone receptor (Homo sapiens, UniProt P06401)
T2 sequence (P06401 whole entry): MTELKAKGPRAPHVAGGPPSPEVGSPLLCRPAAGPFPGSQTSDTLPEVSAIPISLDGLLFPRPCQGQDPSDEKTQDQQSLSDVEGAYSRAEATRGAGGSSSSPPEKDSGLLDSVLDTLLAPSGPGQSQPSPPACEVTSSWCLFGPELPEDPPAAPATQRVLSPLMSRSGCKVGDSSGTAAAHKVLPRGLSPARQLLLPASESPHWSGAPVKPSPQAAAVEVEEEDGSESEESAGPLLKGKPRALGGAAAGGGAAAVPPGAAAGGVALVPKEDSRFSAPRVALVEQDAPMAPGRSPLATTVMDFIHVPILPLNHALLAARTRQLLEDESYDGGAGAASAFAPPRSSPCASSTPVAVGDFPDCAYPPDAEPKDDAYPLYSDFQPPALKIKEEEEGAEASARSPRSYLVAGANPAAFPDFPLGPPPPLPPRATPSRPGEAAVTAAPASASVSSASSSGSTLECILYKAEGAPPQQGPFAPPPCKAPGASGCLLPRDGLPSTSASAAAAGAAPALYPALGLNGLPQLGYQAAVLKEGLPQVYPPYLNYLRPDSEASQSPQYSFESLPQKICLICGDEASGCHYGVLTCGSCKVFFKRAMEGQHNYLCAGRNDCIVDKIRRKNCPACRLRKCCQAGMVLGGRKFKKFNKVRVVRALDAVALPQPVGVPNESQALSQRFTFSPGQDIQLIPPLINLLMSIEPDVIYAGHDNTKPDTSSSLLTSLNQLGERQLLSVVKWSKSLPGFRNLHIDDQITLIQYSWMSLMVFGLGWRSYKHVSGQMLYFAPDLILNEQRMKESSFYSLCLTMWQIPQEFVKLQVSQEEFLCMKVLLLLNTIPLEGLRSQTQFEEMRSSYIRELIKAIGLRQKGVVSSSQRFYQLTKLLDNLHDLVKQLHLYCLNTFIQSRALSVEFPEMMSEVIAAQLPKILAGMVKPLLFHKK

D(1A) dopamine receptor = D(1A) dopamine receptor (Homo sapiens, UniProt P21728)
[6] = target: T3, Alpha-1A adrenergic receptor (Homo sapiens, UniProt P35348)
T3 sequence (P35348 whole entry): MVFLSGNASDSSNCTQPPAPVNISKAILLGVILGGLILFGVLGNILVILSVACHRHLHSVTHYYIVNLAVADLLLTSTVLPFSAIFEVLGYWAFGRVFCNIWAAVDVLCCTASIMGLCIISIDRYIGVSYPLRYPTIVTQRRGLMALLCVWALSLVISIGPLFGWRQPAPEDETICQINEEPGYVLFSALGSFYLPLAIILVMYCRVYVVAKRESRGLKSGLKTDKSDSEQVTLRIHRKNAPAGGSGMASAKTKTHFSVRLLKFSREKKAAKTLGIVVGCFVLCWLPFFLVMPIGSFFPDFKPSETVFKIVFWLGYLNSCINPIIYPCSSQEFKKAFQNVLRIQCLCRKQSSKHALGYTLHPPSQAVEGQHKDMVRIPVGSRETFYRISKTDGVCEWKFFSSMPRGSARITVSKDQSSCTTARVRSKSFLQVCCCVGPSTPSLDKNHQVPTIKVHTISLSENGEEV

[7] = target: T4, Muscarinic acetylcholine receptor M1 (Homo sapiens, UniProt P11229); assay type: functional, cell-based
T4 sequence (P11229 whole entry): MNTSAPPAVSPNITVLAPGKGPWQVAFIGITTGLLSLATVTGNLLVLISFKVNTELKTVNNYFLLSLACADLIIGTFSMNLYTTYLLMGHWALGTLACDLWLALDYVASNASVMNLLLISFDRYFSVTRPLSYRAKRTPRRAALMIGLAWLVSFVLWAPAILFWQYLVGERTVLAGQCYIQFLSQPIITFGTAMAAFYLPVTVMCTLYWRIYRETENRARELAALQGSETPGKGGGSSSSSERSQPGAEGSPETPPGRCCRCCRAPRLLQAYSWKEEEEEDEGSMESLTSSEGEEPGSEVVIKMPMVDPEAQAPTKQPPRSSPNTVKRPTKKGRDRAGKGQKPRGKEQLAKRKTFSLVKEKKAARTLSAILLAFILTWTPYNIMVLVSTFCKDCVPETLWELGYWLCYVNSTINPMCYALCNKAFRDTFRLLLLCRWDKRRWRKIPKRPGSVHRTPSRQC
Also: assay procedure not described here.

Sequence of D(1A) dopamine receptor (P21728 whole entry): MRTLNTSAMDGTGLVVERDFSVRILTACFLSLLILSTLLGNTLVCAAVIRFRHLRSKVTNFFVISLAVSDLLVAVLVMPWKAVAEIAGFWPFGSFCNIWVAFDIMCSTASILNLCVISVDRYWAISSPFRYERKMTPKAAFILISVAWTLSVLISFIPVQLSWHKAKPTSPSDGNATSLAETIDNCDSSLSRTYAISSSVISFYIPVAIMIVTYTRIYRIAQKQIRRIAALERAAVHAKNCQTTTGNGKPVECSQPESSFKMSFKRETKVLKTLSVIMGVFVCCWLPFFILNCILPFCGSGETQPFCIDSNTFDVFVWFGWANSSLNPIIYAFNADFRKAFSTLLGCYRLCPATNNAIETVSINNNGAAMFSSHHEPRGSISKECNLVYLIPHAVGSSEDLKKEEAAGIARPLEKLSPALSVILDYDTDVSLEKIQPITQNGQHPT
Sequence of Beta-3 adrenergic receptor (P13945 whole entry): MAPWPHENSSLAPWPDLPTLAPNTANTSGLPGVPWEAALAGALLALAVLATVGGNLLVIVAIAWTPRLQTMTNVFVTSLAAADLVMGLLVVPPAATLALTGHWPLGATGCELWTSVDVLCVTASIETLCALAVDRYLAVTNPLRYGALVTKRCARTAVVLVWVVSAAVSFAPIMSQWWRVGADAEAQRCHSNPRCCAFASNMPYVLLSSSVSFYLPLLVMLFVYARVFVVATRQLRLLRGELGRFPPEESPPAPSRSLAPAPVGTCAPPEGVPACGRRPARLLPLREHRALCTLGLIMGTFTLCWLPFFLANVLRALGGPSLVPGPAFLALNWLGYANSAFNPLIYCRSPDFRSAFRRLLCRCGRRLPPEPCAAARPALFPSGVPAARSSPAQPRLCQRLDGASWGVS
Sequence of Neurotensin receptor type 1 (P30989 whole entry): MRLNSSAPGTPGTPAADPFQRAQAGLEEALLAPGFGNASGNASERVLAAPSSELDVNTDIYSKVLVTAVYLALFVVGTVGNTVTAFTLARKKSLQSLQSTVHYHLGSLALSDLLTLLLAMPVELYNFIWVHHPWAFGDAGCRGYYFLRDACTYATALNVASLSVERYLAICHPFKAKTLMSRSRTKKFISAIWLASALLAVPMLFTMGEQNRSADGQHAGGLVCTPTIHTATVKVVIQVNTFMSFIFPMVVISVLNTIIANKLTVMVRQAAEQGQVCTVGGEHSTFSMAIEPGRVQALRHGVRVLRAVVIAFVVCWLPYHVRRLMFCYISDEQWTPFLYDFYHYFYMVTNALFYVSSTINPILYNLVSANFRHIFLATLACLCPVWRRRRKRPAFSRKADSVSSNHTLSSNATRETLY
Sequence of 5-hydroxytryptamine receptor 7 (P34969 whole entry): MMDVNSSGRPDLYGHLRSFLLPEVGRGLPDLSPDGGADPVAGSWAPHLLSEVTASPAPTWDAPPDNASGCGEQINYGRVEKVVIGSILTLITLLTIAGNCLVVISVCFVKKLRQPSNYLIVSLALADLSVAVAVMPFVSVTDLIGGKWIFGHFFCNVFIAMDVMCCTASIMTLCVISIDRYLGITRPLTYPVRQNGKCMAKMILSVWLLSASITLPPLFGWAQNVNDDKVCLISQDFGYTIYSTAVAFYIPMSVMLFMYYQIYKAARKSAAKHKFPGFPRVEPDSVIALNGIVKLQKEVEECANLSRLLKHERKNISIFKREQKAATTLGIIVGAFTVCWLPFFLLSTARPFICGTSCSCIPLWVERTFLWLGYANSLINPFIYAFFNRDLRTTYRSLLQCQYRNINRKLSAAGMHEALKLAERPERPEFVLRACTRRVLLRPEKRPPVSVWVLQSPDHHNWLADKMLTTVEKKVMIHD
Sequence of Gamma-aminobutyric acid receptor subunit alpha-1 (P62813 whole entry): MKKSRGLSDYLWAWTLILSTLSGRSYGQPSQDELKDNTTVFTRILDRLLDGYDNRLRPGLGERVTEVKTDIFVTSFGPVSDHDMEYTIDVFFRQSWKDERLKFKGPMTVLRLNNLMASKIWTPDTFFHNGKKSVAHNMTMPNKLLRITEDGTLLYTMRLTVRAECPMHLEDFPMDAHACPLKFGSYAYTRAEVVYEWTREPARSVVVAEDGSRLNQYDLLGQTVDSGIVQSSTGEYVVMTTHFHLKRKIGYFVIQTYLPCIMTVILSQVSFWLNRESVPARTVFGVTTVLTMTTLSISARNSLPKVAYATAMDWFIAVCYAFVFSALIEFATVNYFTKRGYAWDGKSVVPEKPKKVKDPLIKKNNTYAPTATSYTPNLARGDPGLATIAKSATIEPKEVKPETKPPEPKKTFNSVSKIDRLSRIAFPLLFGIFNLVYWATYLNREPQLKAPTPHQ

SMILES | AC50 [1] [µM] | AC50 [2] [µM] | AC50 [3] [µM] | AC50 [4] [µM] | AC50 [5] [µM] | AC50 (Progesterone receptor) [µM] | AC50 (D(1A) dopamine receptor) [µM] | AC50 [6] [µM] | AC50 [7] [µM]
Cc1cc2c(cc1CC(=O)c1sccc1S(=O)(=O)Nc1onc(C)c1Cl)OCO2 [SITAXENTAN] | > 30 |  |  |  |  |  |  |  | 
Nc1nc(N)c2nc(-c3ccccc3)c(N)nc2n1 |  | > 30 | > 30 | > 10 | > 30 | > 30 | > 10 | > 10 | 
NS(=O)(=O)c1cc2c(cc1Cl)NCNS2(=O)=O [HYDROCHLOROTHIAZIDE] |  | > 30 | > 30 | > 10 | > 30 | > 30 | > 10 | > 10 | 
CC(=O)OCC(=O)[C@@]1(O)CC[C@H]2[C@@H]3CCC4=CC(=O)CC[C@]4(C)[C@H]3C(=O)C[C@@]21C [CORTISONE ACETATE] | > 30 |  |  |  |  |  |  |  | 
C#C[C@]1(O)CC[C@H]2[C@@H]3CCC4=CC(=O)CC[C@@H]4[C@H]3CC[C@@]21CC [LEVONORGESTREL] | 3.44 |  |  |  |  |  |  |  | 
C(=N\NC1=NCCN1)/c1c2ccccc2c(/C=N/NC2=NCCN2)c2ccccc12 [BISANTRENE] | > 30 |  |  |  |  |  |  |  | 6.37
NC1=NC(=O)C(c2ccccc2)O1 (centres undefined) [PEMOLINE] |  |  |  |  |  | > 30 |  |  | 
CCN(CC)CCNC(=O)c1cc(Cl)c(N)cc1OC [METOCLOPRAMIDE] |  | > 30 | > 30 |  | > 30 | > 30 | > 10 | > 10 | 
CCc1nn(CCCN2CCN(c3cccc(Cl)c3)CC2)c(=O)n1CCOc1ccccc1 [NEFAZODONE] |  | 9.5 | > 30 | 0.237 | > 30 | > 30 |  | 0.13 | 
COC(=O)[C@@H]1CC2=CC(=O)CC[C@]2(C)[C@@]23O[C@@H]2C[C@@]2(C)[C@@H](CC[C@@]24CCC(=O)O4)[C@H]13 [EPLERENONE] |  | > 30 | > 30 |  | > 30 |  | > 10 |  | 
COc1cc(Nc2c(C#N)cnc3cc(OCCCN4CCN(C)CC4)c(OC)cc23)c(Cl)cc1Cl [BOSUTINIB] | > 30 | 16.8 | > 30 | > 10 | > 30 | > 30 | > 10 |  | > 3
O=C1c2ccccc2C(=O)C1C(=O)C(c1ccccc1)c1ccccc1 [DIPHENADIONE] | > 30 |  |  |  |  |  |  |  | > 3
C[N+](C)(C)CCCCCCCCCC[N+](C)(C)C [DECAMETHONIUM] |  |  |  |  |  |  |  |  | > 30
CC(=O)Oc1c(C)cc(OCC(O)CNC(C)C)c(C)c1C (centres undefined) [METIPRANOLOL] | > 30 |  |  |  |  |  |  |  | > 30
CC(N/C(=N\C#N)Nc1ccncc1)C(C)(C)C (centres undefined) [PINACIDIL ANHYDROUS] |  |  |  |  |  |  |  |  | > 30
O=C1CC[C@@]2(O)[C@H]3Cc4ccc(O)c5c4[C@@]2(CCN3CC2CC2)[C@H]1O5 [NALTREXONE] | > 30 |  |  |  |  |  |  |  | 
CCC(=O)c1c(O)cc(O)cc1O [FLOPROPIONE] |  |  |  |  |  |  |  |  | > 30
CC(N)Cc1ccccc1 (centres undefined) [AMPHETAMINE] |  | > 30 | > 30 |  | > 30 | > 30 |  |  | 

SMILES | AC50 [1] [µM] | AC50 [2] [µM] | AC50 [3] [µM] | AC50 [4] [µM] | AC50 [5] [µM] | AC50 (Progesterone receptor) [µM] | AC50 (D(1A) dopamine receptor) [µM] | AC50 [6] [µM] | AC50 [7] [µM]
O=C1[C@H](CC[C@H](O)c2ccc(F)cc2)[C@@H](c2ccc(O)cc2)N1c1ccc(F)cc1 [EZETIMIBE] |  |  |  |  |  |  |  |  | 4.55
CCC(=O)O[C@H]1[C@H](O[C@@H]2[C@@H](C)[C@H](O[C@H]3C[C@@](C)(OC)[C@@H](O)[C@H](C)O3)[C@@H](C)C(=O)O[C@H](CC)[C@@](C)(O)[C@H](O)[C@@H](C)C(=O)[C@H](C)C[C@@]2(C)O)O[C@H](C)C[C@@H]1N(C)C [ERYTHROMYCIN PROPIONATE] | > 30 |  |  |  |  |  |  |  | 
CN(CCOc1ccc(NS(C)(=O)=O)cc1)CCc1ccc(NS(C)(=O)=O)cc1 [DOFETILIDE] |  | > 30 | > 30 |  | > 30 | > 30 | > 10 | > 10 | > 30
CCOC(=O)c1ccc(O)cc1 [ETHYLPARABEN] |  |  |  |  |  |  |  |  | > 30
OCCN1CCN(CCCN2c3ccccc3C=Cc3ccccc32)CC1 [OPIPRAMOL] | > 30 |  |  |  |  |  | 2.24 | 1.41 | 25.7
O=C(CCCCCCC(=O)Nc1ccccc1)NO [VORINOSTAT] |  |  |  | > 10 |  |  | > 10 | > 10 | 
CCC[C@@H]1C[C@@H](C(=O)N[C@@H]([C@H]2O[C@H](SC)[C@H](O)[C@@H](O)[C@H]2O)[C@H](C)Cl)N(C)C1 [CLINDAMYCIN] |  | > 30 | > 30 |  | > 30 | > 30 | > 10 | > 10 | 
CC(C(=O)O)c1ccc(N2CC=CC2)c(Cl)c1 (centres undefined) [PIRPROFEN] |  | > 30 | > 30 |  | > 30 | > 30 | > 10 | > 10 | 28.7
NC(N)=Nc1nc(CSCCC(N)=NS(N)(=O)=O)cs1 [FAMOTIDINE] |  | > 30 | > 30 | > 10 | > 30 | > 30 | > 10 | > 10 | 
Oc1ncnc2[nH]ncc12 [ALLOPURINOL] |  | > 30 | > 30 |  | > 30 | > 30 | > 10 | > 10 | 
Cc1ccc(O)c2ncccc12 [TILIQUINOL] | > 30 |  |  |  |  |  |  |  | > 30
CC(=O)OC[C@H]1O[C@@H](n2ccc(=O)[nH]c2=O)[C@H](OC(C)=O)[C@@H]1OC(C)=O [URIDINE TRIACETATE] | > 30 |  |  |  |  |  |  |  | > 30
CN1CCCC(CN2c3ccccc3Sc3ccccc32)C1 (centres undefined) [MEPAZINE] | > 30 |  |  |  |  |  |  |  | 
CN(C)C(=O)Oc1ccc[n+](C)c1 [PYRIDOSTIGMINE] |  |  |  |  |  |  |  |  | > 30
CCO/N=C(\C(=O)N[C@@H]1C(=O)N2C(C(=O)[O-])=C(Sc3nc(-c4cc[n+](C)cc4)cs3)CS[C@H]12)c1nsc(N)n1 [CEFTAROLINE] |  |  |  |  |  |  |  |  | > 30
OC[C@@H](O)[C@@H](O)[C@H](O)[C@H](O)CO [MANNITOL] | > 30 |  |  |  |  |  |  |  | 
COc1cc2c(cc1OC)C(=O)C(CC1CCN(Cc3ccccc3)CC1)C2 (centres undefined) [DONEPEZIL] |  | > 30 | > 30 | > 10 | > 30 | > 30 | > 10 |  | 5.32
